Data on 3 compounds can be found in BindingDB's records for doi:10.1021/jm030795v (Wroclaw University of Technology, 2003).

Molecules are shown by their SMILES. Structures can show the parent of a compound that is named as a salt.

A word on the Ki: it is a dissociation constant, usually derived from enzyme kinetics or from competition with a known ligand. A lower Ki goes with a stronger hold on the target.

This test deals with Cytosol aminopeptidase (Sus scrofa). As to the kind of experiment: Binding affinity for cytosolic leucine aminopeptidase (LAP) from porcine kidney.
Compound `CC(C)CC(N)C=O` (stereo not drawn) [2-Amino-4-methyl-pentanal] registered a Ki of 0.06 µM. Then `CC(C)CC(OP(=O)(O)C(N)CC(C)C)C(=O)O` (stereo not drawn) [2-[(1-Amino-3-methyl-butyl)-hydroxy-phosphinoyloxy]-4-methyl-pentanoic acid], with 58 µM; and `CC(C)CC(O)P(=O)(O)NCC(=O)O` (stereo not drawn) [{[hydroxy(1-hydroxy-3-methylbutyl)phosphoryl]amino}acetic acid; dilithium salt], with 4.88 µM.
